The source of these data is PMC10892041, “Vanadium Complexes with Thioanilide Derivatives of Amino Acids: Inhibition of Human Phosphatases and Specificity in Various Cell Models of Metabolic Disturbances” (Pharmaceuticals, 2024).

As usually defined, the IC50 is the point on the concentration scale where inhibition reaches its midpoint.

Read-outs that look alike come from different tables or passages of the source.

One data set concerns the target T1, SHP2 (Homo sapiens, UniProt Q06124).
T1 construct: purchased Sigma-Aldrich
T1 sequence (Q06124 1-593): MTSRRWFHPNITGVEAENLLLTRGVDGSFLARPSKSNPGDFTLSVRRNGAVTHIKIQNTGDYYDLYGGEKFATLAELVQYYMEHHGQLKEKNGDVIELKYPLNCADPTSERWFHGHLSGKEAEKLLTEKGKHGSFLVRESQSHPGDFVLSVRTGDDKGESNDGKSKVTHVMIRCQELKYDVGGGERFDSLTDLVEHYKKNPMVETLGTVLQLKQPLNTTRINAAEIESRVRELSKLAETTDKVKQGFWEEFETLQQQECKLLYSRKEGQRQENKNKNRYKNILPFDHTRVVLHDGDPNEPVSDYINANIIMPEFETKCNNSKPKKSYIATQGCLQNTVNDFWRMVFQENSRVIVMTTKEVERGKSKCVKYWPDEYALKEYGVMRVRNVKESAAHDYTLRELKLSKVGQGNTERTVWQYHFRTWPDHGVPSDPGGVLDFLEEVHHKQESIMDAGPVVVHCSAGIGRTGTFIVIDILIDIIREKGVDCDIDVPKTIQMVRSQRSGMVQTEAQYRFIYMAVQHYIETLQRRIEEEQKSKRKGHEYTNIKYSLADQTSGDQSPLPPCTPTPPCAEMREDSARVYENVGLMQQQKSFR
Kind of data set: Inhibition of human recombinant tyrosine phosphatase SHP2 (DiFMUP fluorescence). Format: biochemical. The following applies: for Inhibition of SHP2, percentage of inhibition of the control: 1 µM, control solvent only, SD did not exceed 6%. In outline:
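Human recombinant phosphatases (SHP1 400 ng/mL, SHP2 50 ng/mL, LAR 5 ng/mL final) were pre-incubated 10 min with compound in 25 mM MOPS pH 7.0, 50 mM NaCl, 1 mM DTT, 0.05% Tween-20. DiFMUP (0.1 mM final) was added for 20 min at 23 °C and fluorescence read at 355/560 nm. Screening used 1 µM compound (% inhibition vs vehicle); IC50 also reported.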

The next data set relates to myocytes C2C12. Kind of data set: Viability of myocytes C2C12 after 24 h incubation (resazurin-based reagent). The following applies: 50 µM; 24 h incubation; control solvent only. For orientation: Alamar Blue is a resazurin reagent that responds to reducing activity.
In the next data set the target is T2, PTP1B (Homo sapiens, UniProt P18031).
T2 construct: purchased Sigma-Aldrich
T2 sequence (P18031 1-435): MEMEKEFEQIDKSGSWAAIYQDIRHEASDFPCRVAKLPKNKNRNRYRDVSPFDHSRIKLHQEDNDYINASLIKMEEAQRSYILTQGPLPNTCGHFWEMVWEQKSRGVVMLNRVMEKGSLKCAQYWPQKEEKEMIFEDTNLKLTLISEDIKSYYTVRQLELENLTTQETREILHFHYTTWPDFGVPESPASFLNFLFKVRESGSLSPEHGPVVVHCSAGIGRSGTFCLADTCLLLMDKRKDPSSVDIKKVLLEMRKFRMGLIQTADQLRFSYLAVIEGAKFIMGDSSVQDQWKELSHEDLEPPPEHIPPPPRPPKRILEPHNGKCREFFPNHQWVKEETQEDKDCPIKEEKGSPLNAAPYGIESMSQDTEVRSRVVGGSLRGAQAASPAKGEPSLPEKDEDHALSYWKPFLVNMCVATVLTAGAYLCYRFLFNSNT
The following applies: cited from earlier work.

As to `Cc1occc(=O)c1[O-].Cc1occc(=O)c1[O-].[O]=[V+2]` [BMOV, bis(maltolato)oxidovanadium(IV), reference compound], at SHP2, the IC50 is 8 nM and the “Inhibition of SHP2, percentage of inhibition of the control” value came out at 82%. The “Cell viability of myocytes C2C12, % of the control” value with myocytes C2C12 worked out at 90 ± 4%.
For the compound `O=S(=O)([O-])[O-].[O]=[V+2]` [VOSO4, reference compound], the figures for the IC50 at SHP2, on PTP1B (lower end of published range) and at PTP1B (upper end of published range) were 13 nM, 18 nM and 380 nM, respectively. Besides, at SHP2, the “Inhibition of SHP2, percentage of inhibition of the control” value is given as 77%.
